# From publication PMC8453745, “Human Mass Balance and Metabolite Profiling of [^14C]‐Pamiparib, a Poly (ADP‐Ribose) Polymerase Inhibitor, in Patients With Advanced Cancer” (Clinical Pharmacology in Drug Development, 2021)
# Key:
# [1] = unchanged pamiparib in urine and renal clearance (LC‐MS/MS); assay type: in vivo, human
# Method: Total radioactivity was analyzed at Covance Laboratories (Harrogate, North Yorkshire, UK), and metabolite profiling was conducted at Covance Laboratories (Madison, Wisconsin). Determination of pamiparib concentrations in plasma and total radioactivity in plasma and whole blood was performed predose and 0.25, 0.5, 1, 1.5, 2, 2.5, 3, 6, 12, 24, 48, 72, 96, 120, and 144 hours postdose. Pamiparib concentrations in plasma and urine were determined at Covance Laboratories (Salt Lake City, Utah) with validated liquid chromatography‐tandem mass spectrometry (LC‐MS/MS) methods.
# An aliquot of human plasma (25 μL) containing dipotassium ethylenediaminetetraacetic acid as anticoagulant or urine (25 μL) was added with the internal standard (20.0 μL of 400 ng/mL BGB‐326) in water:ACN (50:50 v/v) followed by the addition of water:ACN (50:50 v/v, 20.0 μL). […]
# Standard PK parameters of pamiparib in plasma as well as total radioactivity in blood and plasma were calculated with noncompartmental methods with Phoenix WinNonlin (version 8.1). Area under the concentration‐time curve (AUC) from time 0 to infinity (AUC0‐∞), AUC from time 0 to last quantifiable concentration (AUC0‐t), Cmax, time postdose at Cmax (tmax), t1/2, and apparent total clearance (CL/F) were calculated. Renal clearance (CLR) was calculated as Ae/AUC, where Ae was the amount of drug excreted in urine.
# [2] = test system: PARP activity; design: method as in PMID 33264017; conditions: read-out: inhibition of PARP activity in cellular PARylation assay, IC50; cited from earlier work
# [3] = cited from earlier work
# [4] = test system: Chinese hamster ovary cells; design: method as in data on file; conditions: in vitro chromosomal aberration assay, CHO cells; ref data on file; cited from earlier work
# [5] = test system: rat bone marrow; design: method as in data on file; conditions: in vivo rat bone marrow micronucleus assay; ref data on file; cited from earlier work
# [6] = design: method as in data on file; conditions: suspension in water, room temperature; ref data on file; cited from earlier work
# [7] = 60‐mg single dose, n = 11, ref BGB‐290‐AU‐002, NCT02361723
smiles,measurement,setting,value
C[C@]12CCCN1CC1=NNC(=O)c3cc(F)cc4[nH]c2c1c34 [Pamiparib],"cumulative percent of pamiparib excreted unchanged in urine, geometric mean","[1]; LC‐MS/MS, over the 192‐hour study",≈ 1.7 % of the administered dose
same,CL renal,"[1]; human, urine and plasma, oral, 60 mg, calculated as Ae/AUC, read-out: renal clearance, geometric mean (converted)",0.623 mL/min
same,IC50,[2],200 pM
same,"AUC0‐inf, geometric mean",[3]; [7],32 005 ng·h/mL
same,"Cmax, geometric mean",[3]; [7],1881 ng/mL
same,pharmacokinetic profile (dose linearity),[3]; tested dose range 2.5‐120 mg,linear
same,tolerability,"[3]; up to 60 mg, patients",generally well tolerated
same,clastogenic activity,[4],clastogenic activity
same,clastogenic activity,[5],clastogenic activity
same,chemical stability and radiopurity of the suspension established for,[6],48 h
